The record followed here is US20050060764A1, “Mouse model for bone metabolism” (priority 2003, published 2005).

Strand notation (5' to 3'): a small letter for the sugar, then the base; units joined by * are phosphorothioate-linked, units joined directly phosphodiester-linked; [ ] holds rarer units or linkages, { } end groups; capitals alone tell only the bases. e = 2'-O-(2-methoxyethyl) (MOE); [5mC] = 5-methylcytosine; d = 2'-deoxy (DNA)

The data set concerns rat RANKL mRNA. The data set can be described thus: Antisense inhibition of rat RANKL mRNA levels in UMR-106 cells, quantitative real-time PCR (Table 3). It is filed as cell-based. The arrangement: concentration or dose not given beside the values. To be noted: averages from three experiments. On the procedure: Cells were seeded onto 24-well plates (Falcon-353047) at a density of […] for use in antisense oligonucleotide transfection.
Cells are treated and data are obtained in triplicate. […] Cells were harvested 16-24 hours after oligonucleotide treatment.
PCR reagents were obtained from Invitrogen Corporation, (Carlsbad, Calif.).
Probes and primers to rat RANKL were designed to hybridize to a rat RANKL sequence, using published sequence information (GenBank accession number NM_057149.1, incorporated herein as SEQ ID NO:18). For rat RANKL the PCR primers were: • forward primer: […] (SEQ ID NO:19) • reverse primer: […] (SEQ ID NO: 20) and the • PCR probe was: FAM-[…]-TAMRA (SEQ ID NO: 21) where FAM is the fluorescent reporter dye and TAMRA is the quencher dye. For rat GAPDH the PCR primers were: • forward primer: […](SEQ ID NO:22) • reverse primer: […](SEQ ID NO:23) and the • PCR probe was: 5′ JOE-[…]-TAMRA 3′ (SEQ ID NO: 24) where JOE is the fluorescent reporter dye and TAMRA is the quencher dye.
In accordance with the present invention, a second series of antisense compounds was designed to target different regions of the rat RANKL RNA, using published sequences (GenBank accession number NM_057149.1, incorporated herein as SEQ ID NO: 18, and GenBank accession number AF425669.1, incorporated herein as SEQ ID NO: 200). […] All cytidine residues are 5-methylcytidines. […] If present, “N.D.” indicates “no data”.
Take “gcgatgctgcagaccacctg (antisense eG*e[5mC]*eG*eA*eT*dG*d[5mC]*dT*dG*d[5mC]*dA*dG*dA*d[5mC]*d[5mC]*eA*e[5mC]*e[5mC]*eT*eG) [ISIS 286588, 2′-MOE gapmer targeted to rat RANKL]”: the “% INHIB (inhibition of rat RANKL mRNA levels)” value (shortened to “% INHIB”) was “at least 40%”. For “286651 (eA*eG*eG*eT*eT*d[5mC]*dT*d[5mC]*dA*dG*dT*dG*dG*d[5mC]*dA*e[5mC]*eA*eG*eG*e[5mC]; antisense) [compound 286651]”, the “% INHIB” value stood at 80%. Under “aacctgtattttcacggagt (eA*eA*e[5mC]*e[5mC]*eT*dG*dT*dA*dT*dT*dT*dT*d[5mC]*dA*d[5mC]*eG*eG*eA*eG*eT; antisense) [ISIS 286602, 2′-MOE gapmer targeted to rat RANKL]” stands “at least 40%”; under “286633 (antisense e[5mC]*e[5mC]*eA*eG*eT*dT*d[5mC]*dT*dT*dA*dG*dT*dG*d[5mC]*dT*e[5mC]*e[5mC]*e[5mC]*e[5mC]*e[5mC]) [compound 286633]”, 4%.

Regarding “286586 (antisense eG*eG*eT*eA*e[5mC]*dT*dT*dG*d[5mC]*d[5mC]*dG*dT*dA*dG*dT*e[5mC]*eT*e[5mC]*eG*eG) [compound 286586]”, the “% INHIB” value is listed as 63%. Under “286645 (antisense e[5mC]*eT*eT*eA*eG*dT*dA*dG*dT*d[5mC]*dT*dT*dA*d[5mC]*dA*e[5mC]*eA*eT*eG*eT) [compound 286645]” stands 51%. For “286590 (antisense e[5mC]*eA*eG*eG*eA*dA*d[5mC]*dA*dG*dA*dG*d[5mC]*dG*dA*dT*eG*e[5mC]*eT*eG*e[5mC]) [compound 286590]”, the “% INHIB” value came out at 47%.

For the substance “286619 (antisense eG*eG*eT*eT*eA*dA*d[5mC]*d[5mC]*d[5mC]*dT*dT*dA*dG*dT*dT*eT*eT*e[5mC]*e[5mC]*eG) [compound 286619]”, the “% INHIB” value worked out at 61%. Regarding “tctgttaggatccatctgcg (eT*e[5mC]*eT*eG*eT*dT*dA*dG*dG*dA*dT*d[5mC]*d[5mC]*dA*dT*e[5mC]*eT*eG*e[5mC]*eG; antisense) [ISIS 286596, 2′-MOE gapmer targeted to rat RANKL]”, the “% INHIB” value was “at least 40%”. As for “286601 (antisense eT*e[5mC]*eA*e[5mC]*eG*dG*dA*dG*dT*d[5mC]*dT*d[5mC]*dA*dG*dA*eA*eT*eT*e[5mC]*eT) [compound 286601]”, the figure is 63%.

For the substance “gtcttacacatgtatctaca (eG*eT*e[5mC]*eT*eT*dA*d[5mC]*dA*d[5mC]*dA*dT*dG*dT*dA*dT*e[5mC]*eT*eA*e[5mC]*eA; antisense) [ISIS 286644, 2′-MOE gapmer targeted to rat RANKL]”, the “% INHIB” value was “at least 40%”. On to “gacctgtacagggtcgagag (eG*eA*e[5mC]*e[5mC]*eT*dG*dT*dA*d[5mC]*dA*dG*dG*dG*dT*d[5mC]*eG*eA*eG*eA*eG; antisense) [ISIS 286647, 2′-MOE gapmer targeted to rat RANKL]”, for which the “% INHIB” value is recorded as “at least 40%”.

Regarding “286632 (antisense e[5mC]*eT*eT*eG*eG*dG*dA*dT*dT*dT*dT*dG*dA*dT*dG*e[5mC]*eT*eG*eG*eT) [compound 286632]”, the “% INHIB” value is on record as 51%. Under “286628 (antisense eA*eG*eA*eT*eA*dG*dT*d[5mC]*d[5mC]*dG*d[5mC]*dA*dG*dG*dT*eA*e[5mC]*eG*e[5mC]*eT) [compound 286628]” stands 24%; under “286622 (antisense eA*eA*eT*eA*eG*dA*dA*dG*d[5mC]*d[5mC]*dA*dT*d[5mC]*dT*dT*eG*eG*eT*eT*eA) [compound 286622]”, 12%. As for “acttatttgcaggttccagc (eA*e[5mC]*eT*eT*eA*dT*dT*dT*dG*d[5mC]*dA*dG*dG*dT*dT*e[5mC]*e[5mC]*eA*eG*e[5mC]; antisense) [ISIS 286654, 2′-MOE gapmer targeted to rat RANKL]”, the entry is “at least 40%”; as for “286620 (antisense eA*eT*e[5mC]*eT*eT*dG*dG*dT*dT*dA*dA*d[5mC]*d[5mC]*d[5mC]*dT*eT*eA*eG*eT*eT) [compound 286620]”, 48%; as for “286605 (antisense eT*eT*eT*eG*e[5mC]*dA*d[5mC]*dG*dG*d[5mC]*d[5mC]*d[5mC]*d[5mC]*dT*dT*eG*eA*eA*eA*eG) [compound 286605]”, 53%. Turning to “286648 (antisense e[5mC]*e[5mC]*eA*eT*eT*dG*dT*dG*dT*dG*dA*dT*d[5mC]*dA*d[5mC]*e[5mC]*eA*eT*eG*eA) [compound 286648]”, the “% INHIB” value was 72%. As for “286641 (antisense e[5mC]*eT*eT*eT*eG*dA*dA*dA*dG*d[5mC]*d[5mC]*d[5mC]*d[5mC]*dA*dA*eA*eG*eT*eA*e[5mC]) [compound 286641]”, the figure is 49%.

In the case of “286637 (antisense e[5mC]*eG*e[5mC]*eA*eT*d[5mC]*dT*dT*dG*dA*dT*d[5mC]*d[5mC]*dG*dG*eA*eT*e[5mC]*e[5mC]*eA) [compound 286637]”, the “% INHIB” value is 27%. As to “286608 (antisense e[5mC]*eA*eA*eA*e[5mC]*dG*dG*d[5mC]*dT*dG*dA*dG*d[5mC]*d[5mC]*dT*e[5mC]*eA*eG*eG*e[5mC]) [compound 286608]”, the “% INHIB” value is on record as 25%. In the case of “ctttgaaagccccaaagtac (e[5mC]*eT*eT*eT*eG*dA*dA*dA*dG*d[5mC]*d[5mC]*d[5mC]*d[5mC]*dA*dA*eA*eG*eT*eA*e[5mC]; antisense) [ISIS 286641, 2′-MOE gapmer targeted to rat RANKL]”, the “% INHIB” value is reported as “at least 40%”.

As to “286644 (antisense eG*eT*e[5mC]*eT*eT*dA*d[5mC]*dA*d[5mC]*dA*dT*dG*dT*dA*dT*e[5mC]*eT*eA*e[5mC]*eA) [compound 286644]”, the “% INHIB” value is on record as 57%. Under “tttgcacggccccttgaaag (eT*eT*eT*eG*e[5mC]*dA*d[5mC]*dG*dG*d[5mC]*d[5mC]*d[5mC]*d[5mC]*dT*dT*eG*eA*eA*eA*eG; antisense) [ISIS 286605, 2′-MOE gapmer targeted to rat RANKL]” stands “at least 40%”. On to “tagagatcttggcccagcct (eT*eA*eG*eA*eG*dA*dT*d[5mC]*dT*dT*dG*dG*d[5mC]*d[5mC]*d[5mC]*eA*eG*e[5mC]*e[5mC]*eT; antisense) [ISIS 286615, 2′-MOE gapmer targeted to rat RANKL]”, for which the “% INHIB” value was “at least 40%”.

With “286639 (antisense e[5mC]*e[5mC]*e[5mC]*eA*eA*dA*dG*dT*dA*d[5mC]*dG*dT*d[5mC]*dG*d[5mC]*eA*eT*e[5mC]*eT*eT) [compound 286639]”, the “% INHIB” value worked out at 48%. Regarding “286657 (e[5mC]*e[5mC]*eA*eG*eT*dT*dA*dA*dA*dT*dA*d[5mC]*dA*dT*d[5mC]*eT*eT*eG*eA*e[5mC]; antisense) [compound 286657]”, the “% INHIB” value is listed as 10%.

With “286607 (antisense eT*eG*eT*eG*eG*d[5mC]*d[5mC]*d[5mC]*d[5mC]*dA*d[5mC]*dA*dA*dT*dG*eT*eG*eT*eT*eG) [compound 286607]”, the “% INHIB” value came out at 48%.

“286629 (antisense eA*e[5mC]*e[5mC]*eA*eT*d[5mC]*dA*dG*d[5mC]*dT*dG*dA*dA*dG*dA*eT*eA*eG*eT*e[5mC]) [compound 286629]”: the “% INHIB” value worked out at 63%. As for “286594 (antisense eT*e[5mC]*e[5mC]*eA*eT*d[5mC]*dT*dG*d[5mC]*dG*d[5mC]*dT*d[5mC]*dG*dA*eA*eA*eG*eT*eA) [compound 286594]”, the figure is 35%. Take “taggatccatctgcgctcga (eT*eA*eG*eG*eA*dT*d[5mC]*d[5mC]*dA*dT*d[5mC]*dT*dG*d[5mC]*dG*e[5mC]*eT*e[5mC]*eG*eA; antisense) [ISIS 286595, 2′-MOE gapmer targeted to rat RANKL]”: the “% INHIB” value is on record as “at least 40%”. In the case of “cccaaagtacgtcgcatctt (e[5mC]*e[5mC]*e[5mC]*eA*eA*dA*dG*dT*dA*d[5mC]*dG*dT*d[5mC]*dG*d[5mC]*eA*eT*e[5mC]*eT*eT; antisense) [ISIS 286639, 2′-MOE gapmer targeted to rat RANKL]”, the “% INHIB” value was “at least 40%”. Regarding “286595 (antisense eT*eA*eG*eG*eA*dT*d[5mC]*d[5mC]*dA*dT*d[5mC]*dT*dG*d[5mC]*dG*e[5mC]*eT*e[5mC]*eG*eA) [compound 286595]”, the “% INHIB” value stood at 46%. As for “286642 (antisense eT*e[5mC]*eA*eG*eT*d[5mC]*dT*dA*dT*dG*dT*d[5mC]*dT*dT*dG*eA*eA*e[5mC]*eT*eT) [compound 286642]”, the figure is 41%.
